Measured values: article PMC12722920, “Pharmacokinetics and pharmacodynamics of cannabigerol (CBG) in the C57BL/6Crl mouse” (Frontiers in Pharmacology, 2025)
Read-outs that look alike come from different tables or passages of the source.

Key:
[1] = Phase I pharmacokinetic profile: blood concentration vs time by HPLC-MS/MS after a single 10 mg/kg dose; assay type: in vivo, C57BL/6Crl mice; conditions: for k (terminal phase rate constant): noncompartmental
Method: In phase I, male mice were randomly assigned to Groups A, B, C, or D. Interventions per group are specified in Figure 2. Each group was divided into 3 cohorts and randomly assigned to receive p.o., i.p., or i.v. administration. Oral (p.o.) administration cohorts received 10 mg/kg CBG in olive oil with 10% DMSO, and i.p. and i.v. cohorts received 10 mg/kg CBG with 10% DMSO and vehicle (1:1:18 ethanol: kolliphor: saline). PK profiles were developed for blood collection at 10 min, 30 min, 1 h, 3 h, 6 h, 12 h, 18 h, and 24 h. Blood collection was performed using a destructive sampling method, with each mouse providing blood at two time point collections. The initial blood draw aimed to obtain a 100 µL blood sample from the left leg lateral saphenous vein of the mouse, and the second blood draw from the same mouse involved the administration of isoflurane (3%–5%) followed by exsanguination via cardiac puncture. Group A was subjected to two time point blood draws, at 10 min and at 30 min. Groups B-D were first subjected to the cannabinoid-induced tetrad assay, then two time point blood draws. Due to time constraints, the open field test (OFT) was not performed in Phase I.
Blood collection from the saphenous leg vein was drawn into a RAM Scientific Safe-T-Fill™ Capillary blood collection system containing heparin and lithium (Waltham, Massachusetts, U.S). Blood collection from the cardiac puncture was drawn into a syringe and transferred to a 2 mL blood collection tube containing heparin and lithium. Samples were immediately placed on ice, transferred to LoBind® tubes as quickly as possible, and then stored at −80 °C. The blood concentrations of CBG were determined using High-Performance Liquid Chromatography-Tandem Mass Spectrometry (HPLC-MS/MS).
The PK parameters for CBG were determined by GraphPad Prism (v. 10.2.3). Linear regression analysis natural log of the concentration versus time curve was utilized to derive the terminal phase rate constant (k), from which the terminal phase half-life (t1/2) was calculated using the ratio (0.693/k). For both p.o. and i.p. administration, the Cmax was obtained directly from visual inspection of the blood concentration versus time profiles. For the purposes of this study, Tmax refers to the time at which Cmax was reported. The log-linear trapezoidal method was used to calculate the total area under the curve (AUC) of the average blood concentrations versus time profile with extrapolation to infinity, where the tail of the AUC (i.e., last concentration extrapolated to infinity) was calculated as the ratio Cp,last/k. Bioavailability was estimated by dividing the mean total AUC∞ for each route of administration by the total AUC observed for each compound following i.v. administration (where F = 100%, by definition). Systemic clearance (ClS) was calculated as the ratio Dose i.v. /AUC ∞ . The apparent volume of distribution (Vd) was calculated as Dose i.v. /(k × AUC ∞ ).
HPLC-MS/MS was used to quantify CBG in the blood using a 1,260 Agilent (Agilent Technologies Canada, Mississauga, ON) High Performance Liquid Chromatography (HPLC) system connected to an AB Sciex 4,000 Hybrid Triple Quadruple Linear Ion Trap Mass Spectrometer (QTRAP) equipped with a Turboionspray™ interface (AB Sciex, Concord, ON). The analytical method was developed and validated for mouse blood. An Infinity lab Phenyl Hexyl column (4.6 × 12.5 mm, 5 μm) and guard column (4.6 × 12.5 mm, 5 μm) were used to separate compounds, and the temperature was set to 50 °C.

C57BL/6Crl mice [2] = experiment: Cannabinoid tetrad: catalepsy in the ring holding assay; assay type: in vivo; conditions: for ED50: Mus musculus, iv
C57BL/6Crl mice [3] = experiment: Open field test (OFT): locomotion and anxiety-like behaviour; assay type: in vivo
Method: Catalepsy was assessed in the ring holding assay; mice were positioned with their forepaws grasping onto a 0.5 cm thick ring clamp elevated 5 cm above the testing surface. The duration of time while the ring was held was recorded in seconds, with each trial terminated if the mouse’s forepaw released from the bar, upon turning of the head or body, or after 60 s of immobility. Catalepsy was evaluated three times consecutively, and the average time spent holding the bar was reported as a percent of the maximum possible effect (% MPE, up to 60 s). Internal body temperature was measured via a rectal thermometer. Nociception was determined by assessing tail-flick latency, where mice were restrained with their tails placed ∼1 cm into 52 °C ± 2 °C water. The time (sec) until the tail was removed was measured, with observations ending at 20 s and represented as a % MPE. Locomotion and anxiety-like behaviour were assessed in the OFT. Mice were placed in an open space (90 cm × 90 cm) and recorded for 5 min. Total distance travelled (cm), velocity (cm/sec), time in the centre quadrant (sec), and central quadrant entries were measured with EthoVision XT (Noldus Information Technology Inc., Leesburg, VA).
In Phase I (Part B), after determining the timepoint at which blood CBG concentrations were highest for each respective route of administration, the timing for each measure in the tetrad was adjusted. An assessment was conducted in a new cohort consisting of both male and female mice (n = 4 per sex per route) receiving a dose of 10 mg/kg of CBG via i.v., i.p., or p.o. routes. For those administered with i.v. CBG, the timing was: catalepsy at 5 min, body temperature at 15 min, tail-flick latency at 20 min, and OFT at 25 min post-injection. For i.p. CBG, measurements were taken at 20 min for catalepsy, 25 min for body temperature, 30 min for tail-flick latency, and 35 min for OFT post-injection. For p.o. CBG, data collection was scheduled as follows: catalepsy at 170 min, body temperature at 175 min, tail-flick latency at 180 min, and OFT at 185 min post-injection.

humans = test system: humans; set-up: method as in Cuttler et al., 2024; conditions: oral 20 mg CBG; ref Cuttler et al., 2024; cited from earlier work
[4] = 10 mg/kg i.v., male mice, blood
[5] = C57BL/6Crl, mouse, whole blood, ip, 10 mg/kg i.p., male mice, blood
[6] = C57BL/6Crl, mouse, whole blood, iv, 10 mg/kg i.v., male mice, blood
[7] = C57BL/6Crl, mouse, whole blood, po, 10 mg/kg p.o., male mice, blood

Compound: CCCCCc1cc(O)c(C/C=C(\C)CCC=C(C)C)c(O)c1 [CBG, cannabigerol]
- p.o. Cmax as percent of i.p. Cmax ([1]; 10 mg/kg CBG, male mice): 2%
- k (terminal phase rate constant) ([1]; 10 mg/kg i.p., male mice, blood): 0.069 h⁻¹
- α [1, 4]: 1.016 h⁻¹
- k (terminal phase rate constant) [1, 4]: 0.0698 h⁻¹
- AUC(0-inf) [1, 5]: 1170 ng·h/mL
- Cmax [1, 5]: 516 ng/mL
- Tmax [1, 5]: 0.5 h
- half-life [1, 5]: 10 h
- AUC(0-inf) [1, 6]: 2800 ng·h/mL
- half-life [1, 6]: 9.9 h
- clearance ([1]; C57BL/6Crl, mouse, whole blood, iv, 10 mg/kg i.v., male mice, read-out: ClS (systemic clearance)): 59.4 mL/min/kg
- Vd ([1]; C57BL/6Crl, mouse, whole blood, iv, 10 mg/kg i.v., male mice, read-out: Vd (apparent volume of distribution)): 51.1 L/kg
- Cmax [1, 7]: 10.5 ng/mL
- Tmax [1, 7]: 3 h
- concentration at 10 min ([1]; male, C57BL/6Crl, mouse, whole blood, iv, 10 mg/kg, i.v., males, read-out: C at 10 min (blood concentration 10 min post-administration)): 2840 ng/mL
- catalepsy, mean % MPE (C57BL/6Crl mice [2]; 10 mg/kg i.p., 20 min post-injection, male and female mice, MPE = 60 s): 5.4% ± 2.5%
- cataleptic response (C57BL/6Crl mice [2]; 10 mg/kg i.v., i.p. and p.o., male mice, 5 min post-injection): did not produce a cataleptic response
- catalepsy, dose-response (C57BL/6Crl mice [2]; 1, 3, 10 or 30 mg/kg i.v., male and female mice): produced a modest effect but only at the highest dose tested, 30 mg/kg
- ED50 (C57BL/6Crl mice [2]; 5 min, i.v., both sexes, 5 min post-administration, read-out: ED50 catalepsy): > 30 mg/kg
- ED50 (C57BL/6Crl mice [2]; both sexes, three-parameter nonlinear regression, read-out: ED50 catalepsy, estimate exceeding the dose range (square brackets)): > 30 mg/kg
- ED50 (C57BL/6Crl mice [2]; males, read-out: ED50 catalepsy): > 30 mg/kg
- Intoxication ratio, catalepsy (C57BL/6Crl mice [2]; THC potency/CBG potency corrected for blood concentration at 10 min, both sexes): 0.23
- intoxication relative to THC, catalepsy (C57BL/6Crl mice [2]; accounting for blood concentrations measured at 10 min, i.v.): 23%
- Intoxication ratio, catalepsy (C57BL/6Crl mice [2]; females): 0.28
- ED50 catalepsy (C57BL/6Crl mice [2]; i.v., females): > 30 mg/kg
- Intoxication ratio, catalepsy (C57BL/6Crl mice [2]; males): 0.17
- OFT time in the center, CBG compared to THC (C57BL/6Crl mice [3]; 10 mg/kg i.p. or p.o.): spent significantly more time in the center
- OFT velocity (C57BL/6Crl mice [3]; 10 mg/kg i.p., CBG 35 min post-administration): reduced velocity compared to both i.p. vehicle and THC administration
- OFT total distance travelled (C57BL/6Crl mice [3]; 10 mg/kg i.p., compared to i.p. THC): total distance travelled was reduced
- OFT entries to the center (C57BL/6Crl mice [3]; 10 mg/kg i.p., compared to vehicle): entered the center fewer times than their vehicle-treated counterparts
- OFT velocity (C57BL/6Crl mice [3]; 10 mg/kg i.v., 25 min post-administration, male and female mice): reduced velocity compared to vehicle treatment
- OFT total distance travelled (C57BL/6Crl mice [3]; 10 mg/kg i.v., compared to i.v. vehicle): total distance travelled was reduced
- OFT time in the center (C57BL/6Crl mice [3]; 10 mg/kg i.v., compared to the vehicle): Time in the center was reduced
- OFT entries to the center (C57BL/6Crl mice [3]; 10 mg/kg i.v., compared to vehicle): entered the center fewer times than their vehicle-treated counterparts
- OFT entries to the center (C57BL/6Crl mice [3]; 10 mg/kg p.o.): entered the center of the OFT more times than mice given CBG i.v.
- OFT velocity (C57BL/6Crl mice [3]; 10 mg/kg p.o., CBG 185 min post-administration): reduced velocity compared to p.o. THC
- reduction in anxiety levels from baseline (humans): 26.5%
